Assay results reported in patent US12629374B2, “Antimalarial agents” (Merck Sharp & Dohme LLC, priority 2020, dated 2026).

system: ring stage parasites; assay: Parasite growth potency assay, 72 hours, LDH readout; format: cell-based; settings: 72 h, parasite growth measured by LDH assay after 72 hours at 37° C.; 0.7% rings, 2% haematocrit; read-out: EC50
How it was run: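 Parasite growth was quantified by LDH assay after a −80 °C freeze-thaw. Before that, compound was incubated for 72 h at 37 °C under humidified gas with ring-stage cultures adjusted to 0.7% parasitemia and 2% haematocrit in serum- and albumax-supplemented RPMI-Hepes.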

Compound	EC50
CCC[C@H](c1cccc(C(=O)N[C@H]2CCOc3ccccc32)c1)N1C(=N)N[C@@](CC)(c2ccccc2)CC1=O [Example 66, [(4R)-1-[(1R)-1-[3-[[(4S)-chroman-4-yl]carbamoyl]phenyl]butyl]-4-ethyl-6-oxo-4-phenyl-hexahydropyrimidin-2-ylidene]ammonium; 2,2,2-trifluoroacetate]	7.5 nM
CCC[C@H](c1cccc(C(=O)N[C@@H]2c3ccccc3C[C@H]2O)c1)N1C(=N)N[C@@](CC)(c2ccccc2)CC1=O [Example 67, [(4R)-4-ethyl-1-[(1R)-1-[3-[[(1R,2R)-2-hydroxyindan-1-yl]carbamoyl]phenyl]butyl]-6-oxo-4-phenyl-hexahydropyrimidin-2-ylidene]ammonium; 2,2,2-trifluoroacetate]	2.7 nM
CCC[C@H](c1cccc(C(=O)N[C@H]2CCOc3ccccc32)c1)N1C(=N)N[C@](CC2CC2)(c2ccccc2)CC1=O [Example 68, [(4S)-1-[(1R)-1-[3-[[(4S)-chroman-4-yl]carbamoyl]phenyl]butyl]-4-(cyclopropylmethyl)-6-oxo-4-phenyl-hexahydropyrimidin-2-ylidene]ammonium; 2,2,2-trifluoroacetate]	72.2 nM
CCC[C@H](c1cccc(C(=O)N[C@@H]2c3ccccc3C[C@H]2O)c1)N1C(=N)N[C@](CC2CC2)(c2ccccc2)CC1=O [Example 69, [(4S)-4-(cyclopropylmethyl)-1-[(1R)-1-[3-[[(1R,2R)-2-hydroxyindan-1-yl]carbamoyl]phenyl]butyl]-6-oxo-4-phenyl-hexahydropyrimidin-2-ylidene]ammonium; 2,2,2-trifluoroacetate]	29.3 nM
CCC[C@H](c1cccc(C(=O)N[C@H]2CCOc3ccccc32)c1)N1C(=N)N[C@](CC)(c2ccccc2)CC1=O [Example 70, [(4S)-1-[(1R)-1-[3-[[(4S)-chroman-4-yl]carbamoyl]phenyl]butyl]-4-ethyl-6-oxo-4-phenyl-hexahydropyrimidin-2-ylidene]ammonium; 2,2,2-trifluoroacetate]	76 nM
CCC[C@H](c1cccc(C(=O)N[C@@H]2c3ccccc3C[C@H]2O)c1)N1C(=N)N[C@](CC)(c2ccccc2)CC1=O [Example 71, [(4S)-4-ethyl-1-[(1R)-1-[3-[[(1R,2R)-2-hydroxyindan-1-yl]carbamoyl]phenyl]butyl]-6-oxo-4-phenyl-hexahydropyrimidin-2-ylidene]ammonium; 2,2,2-trifluoroacetate]	9.3 nM
CCC1(CC)CC(=O)N([C@H](CCC#N)c2cccc(C(=O)N[C@H]3CCOc4ccccc43)c2)C(=N)N1 [Example 73A, [1-[1-[3-[[(4S)-chroman-4-yl]carbamoyl]phenyl]-3-cyano-propyl]-4,4-diethyl-6-oxo-hexahydropyrimidin-2-ylidene]ammonium; 2,2,2-trifluoroacetate]	0.7 nM
CC#CCC[C@H](c1cccc(C(=O)N[C@H]2CCOc3ccccc32)c1)N1C(=N)NC(CC)(CC)CC1=O [Example 74, [1-[1-[3-[[(4S)-chroman-4-yl]carbamoyl]phenyl]hex-4-ynyl]-4,4-diethyl-6-oxo-hexahydropyrimidin-2-ylidene]ammonium; 2,2,2-trifluoroacetate]	0.9 nM
CC(C)[C@]1(C)CC(=O)N(Cc2cccc(C(=O)N[C@H]3CCc4ccccc43)c2)C(=N)N1 [Example 75, [(4S)-1-[[3-[[(1S)-indan-1-yl]carbamoyl]phenyl]methyl]-4-isopropyl-4-methyl-6-oxo-hexahydropyrimidin-2-ylidene]ammonium; 2,2,2-trifluoroacetate]	66.5 nM
CCC[C@H](c1cccc(C(=O)N[C@H]2CCc3ccccc32)c1)N1C(=N)NC(CC)(CC)CC1=O [Example 76, [4,4-diethyl-1-[1-[3-[[(1S)-indan-1-yl]carbamoyl]phenyl]butyl]-6-oxo-hexahydropyrimidin-2-ylidene]ammonium; 2,2,2-trifluoroacetate]	0.9 nM
CCC1(CC)CC(=O)N(Cc2cccc(C(=O)N[C@H]3CCc4ccccc43)c2)C(=N)N1 [Example 77, [4,4-diethyl-1-[[3-[[(1S)-indan-1-yl]carbamoyl]phenyl]methyl]-6-oxo-hexahydropyrimidin-2-ylidene]ammonium; 2,2,2-trifluoroacetate]	14.7 nM
C=C=C(C)[C@H](c1cccc(C(=O)N[C@H]2CCOc3ccccc32)c1)N1C(=N)NC(CC)(CC)CC1=O [Example 78, [1-[1-[3-[[(4S)-chroman-4-yl]carbamoyl]phenyl]-2-methyl-buta-2,3-dienyl]-4,4-diethyl-6-oxo-hexahydropyrimidin-2-ylidene]ammonium; 2,2,2-trifluoroacetate]	3.1 nM
CC(C)[C@]1(C)CC(=O)N(Cc2cccc(C(=O)NC3CC(C)(C)Oc4ccccc43)c2)C(=N)N1 (stereo partly drawn) [Example 79, [(4S)-1-[[3-[(2,2-dimethylchroman-4-yl)carbamoyl]phenyl]methyl]-4-isopropyl-4-methyl-6-oxo-hexahydropyrimidin-2-ylidene]ammonium; 2,2,2-trifluoroacetate]	2.1 nM
CCC1(CC)CC(=O)N(Cc2cc(C(=O)NC3CC(C)(C)Oc4ccccc43)ccn2)C(=N)N1 (centres unmarked) [Example 80, [1-[[4-[(2,2-dimethylchroman-4-yl)carbamoyl]pyridin-1-ium-2-yl]methyl]-4,4-diethyl-6-oxo-hexahydropyrimidin-2-ylidene]ammonium; 2,2,2-trifluoroacetate]	1.7 nM
CC#CCCC(c1cccc(C(=O)NC2CC(C)(C)Oc3ccccc32)c1)N1C(=N)NC(CC)(CC)CC1=O (centres unmarked) [Example 83A, [1-[1-[3-[(2,2-dimethylchroman-4-yl)carbamoyl]phenyl]hex-4-ynyl]-4,4-diethyl-6-oxo-hexahydropyrimidin-2-ylidene]ammonium; 2,2,2-trifluoroacetate]	62.9 nM
CCC1(CC)CC(=O)N(Cc2cc(C#N)cc(C(=O)N[C@H]3CCOc4ccccc43)c2)C(=N)N1 [Example 84, [1-[[3-[[(4S)-chroman-4-yl]carbamoyl]-5-cyano-phenyl]methyl]-4,4-diethyl-6-oxo-hexahydropyrimidin-2-ylidene]ammonium; 2,2,2-trifluoroacetate]	8.3 nM
CCC1(CC)CC(=O)N([C@@H](c2cccc(C(=O)N[C@H]3CCOc4ccccc43)c2)c2cncs2)C(=N)N1 [Example 85A, N-[(4S)-chroman-4-yl]-3-[(4,4-diethyl-2-imino-6-oxo-hexahydropyrimidin-1-yl)-thiazol-5-yl-methyl]benzamide]	1 nM
CCC1(COC)CC(=O)N(Cc2cccc(C(=O)N[C@H]3CCOc4ccccc43)c2)C(=N)N1 (stereo partly drawn) [Example 86, [1-[[3-[[(4S)-chroman-4-yl]carbamoyl]phenyl]methyl]-4-ethyl-4-(methoxymethyl)-6-oxo-hexahydropyrimidin-2-ylidene]ammonium; 2,2,2-trifluoroacetate]	49.6 nM
CCC1(COC)CC(=O)N(Cc2cccc(C(=O)N[C@@H]3c4ccccc4C[C@H]3O)c2)C(=N)N1 (stereo partly drawn) [Example 95, [4-ethyl-1-[[3-[[(1R,2R)-2-hydroxyindan-1-yl]carbamoyl]phenyl]methyl]-4-(methoxymethyl)-6-oxo-hexahydropyrimidin-2-ylidene]ammonium; 2,2,2-trifluoroacetate]	43.2 nM
CCC1(CC)CC(=O)N([C@@H](c2cccc(C(=O)N[C@H]3CC(C)(C)Oc4ccccc43)c2)C(C)c2cccnc2)C(=N)N1 (stereo partly drawn) [Example 96, [1-[1-[3-[[(4S)-2,2-dimethylchroman-4-yl]carbamoyl]phenyl]-2-pyridin-1-ium-3-yl-propyl]-4,4-diethyl-6-oxo-hexahydropyrimidin-2-ylidenelammonium; 2,2,2-trifluoroacetate]	19.9 nM
CCC1(COC)CC(=O)N(Cc2cccc(C(=O)N[C@H]3CC(C)(C)Oc4ccccc43)c2)C(=N)N1 (stereo partly drawn) [Example 98A, [1-[[3-[[(4S)-2,2-dimethylchroman-4-yl]carbamoyl]phenyl]methyl]-4-ethyl-4-(methoxymethyl)-6-oxo-hexahydropyrimidin-2-ylidene]ammonium; 2,2,2-trifluoroacetate]	15.5 nM
CCC1(CC)CC(=O)N([C@H](c2cncc(F)c2)c2cccc(C(=O)N[C@H]3CC(C)(C)Oc4ccccc43)c2)C(=N)N1 [Example 99A, [1-[[3-[[(4S)-2,2-dimethylchroman-4-yl]carbamoyl]phenyl]-(5-fluoropyridin-1-ium-3-yl)methyl]-4,4-diethyl-6-oxo-hexahydropyrimidin-2-ylidene]ammonium; 2,2,2-trifluoroacetate]	0.6 nM

same assay, conditions: parasite growth measured by LDH assay after 72 hours at 37° C.; 0.7% rings, 2% haematocrit; trifluoroacetate; read-out: EC50

Compound	EC50
CCC1(CC)CC(=O)N(Cc2cncc(C(=O)NC3CC(C)(C)Oc4ccccc43)c2)C(=N)N1 (centres unmarked) [Example 81, [1-[[5-[(2,2-dimethylchroman-4-yl)carbamoyl]pyridin-1-ium-3-yl]methyl]-4,4-diethyl-6-oxo-hexahydropyrimidin-2-ylidene]ammonium; 2,2,2-trifluoroacetate]	1.3 nM
CCC1(CC)CC(=O)N(Cc2cncc(C(=O)NC3CC(C)(C)Oc4ccccc43)c2)C(=N)N1 (centres unmarked) [Example 82, [1-[[5-[(2,2-dimethylchroman-4-yl)carbamoyl]pyridin-1-ium-3-yl]methyl]-4,4-diethyl-6-oxo-hexahydropyrimidin-2-ylidene]ammonium; 2,2,2-trifluoroacetate]	39.4 nM
CC#CCCC(c1cccc(C(=O)NC2CC(C)(C)Oc3ccccc32)c1)N1C(=N)NC(CC)(CC)CC1=O (centres unmarked) [Example 83C, [1-[1-[3-[(2,2-dimethylchroman-4-yl)carbamoyl]phenyl]hex-4-ynyl]-4,4-diethyl-6-oxo-hexahydropyrimidin-2-ylidene]ammonium; 2,2,2-trifluoroacetate]	50.2 nM
CCC1(COC)CC(=O)N(Cc2cccc(C(=O)N[C@H]3CC(C)(C)Oc4ccccc43)c2)C(=N)N1 (stereo partly drawn) [Example 98B, [1-[[3-[[(4S)-2,2-dimethylchroman-4-yl]carbamoyl]phenyl]methyl]-4-ethyl-4-(methoxymethyl)-6-oxo-hexahydropyrimidin-2-ylidene]ammonium; 2,2,2-trifluoroacetate]	8.1 nM
